How the values were obtained:
[1] = test system: TGF-b induced Endothelin-1 production; experiment: ET-1 assay: inhibitory effect on TGF-b induced endothelin-1 production; format: cell-based; conditions: Homo sapiens, Fibroblast; fibroblasts, stimulant (TGFb, serum, LPA etc), ET-1 in media by ELISA, 4-parameter fit
Outline: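 Fibroblasts (primary human lung/dermal, HFL-1, 3T3) serum-starved 0-48 h, preincubated ~30 min with compound, then stimulated (TGFb, serum or LPA) for 16-48 h. Secreted ET-1 measured by ELISA; EC50 from 4-parameter logistic fit, with CC50 from ATPlite in the same wells.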

[2] = test system: Fibroblasts (primary human lung and dermal, HFL-1, 3T3 etc); experiment: Cell proliferation assay (BrdU incorporation); format: cell-based; conditions: HFL1, stimulant (LPA, TGFb, serum etc), 50% inhibition of the increase of BrdU incorporation
Outline: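 Serum-starved (24-48 h) fibroblasts pretreated with compound 0-30 min, then stimulated (LPA, TGFb, serum etc) for 16-24 h before BrdU, labelled a further 8 h. BrdU incorporation read by ELISA at 450 nm; IC50 taken as 50% inhibition of the stimulant-induced increase over unstimulated wells.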

SMILES	EC50 [1] [µM]	IC50 [2] [µM]
CCOc1ccc(-n2cc(-c3ccnnc3)c(C)cc2=O)c(C)c1 [Compound 629]	< 50	> 200
Cn1cc(-c2cn(-c3ccc(OC(F)(F)F)cc3)c(=O)c3[nH]nnc23)cn1 [Compound 631]	< 50	> 200
CCn1cnc2c(=O)n(-c3ccc(OC(F)(F)F)cc3)cc(-c3cnn(C)c3)c21 [Compound 636]	> 200	> 200
CC(C)n1ccc2c(-c3cnn(C)c3)cn(-c3ccc(OC(F)(F)F)cc3)c(=O)c21 [Compound 647]	< 50	< 50
CC(C)n1ccc2c(-c3cn[nH]c3)cn(-c3ccc(OC(F)(F)F)cc3)c(=O)c21 [Compound 648]	< 50	< 50
Cn1cc(-c2cn(-c3ccc(OC(F)(F)F)cc3)c(=O)c3c2ccn3C2CC2)cn1 [Compound 649]	< 50	50 to 200
O=c1c2c(ccn2C2CC2)c(-c2cn[nH]c2)cn1-c1ccc(OC(F)(F)F)cc1 [Compound 650]	< 50	< 50
COCCn1ccc2c(-c3cnn(C)c3)cn(-c3ccc(OC(F)(F)F)cc3)c(=O)c21 [Compound 651]	< 50	< 50
CCn1cc2c(-c3cnn(C)c3)cn(-c3ccc(OC(F)(F)F)cc3)c(=O)c2n1 [Compound 657]	< 50	< 50
Cn1cc(-c2cn(-c3ccc(OC(F)(F)F)cc3)c(=O)c3c2ncn3C)cn1 [Compound 665]	< 50	50 to 200
O=c1c2[nH]nnc2c(-c2ccc(F)cc2)cn1-c1ccc(OC(F)(F)F)cc1 [Compound 681]	50 to 200	< 50
CCn1nnc2c(=O)n(-c3ccc(OC(F)(F)F)cc3)cc(-c3ccc(F)cc3)c21 [Compound 682]	< 50	< 50
CCn1nnc2c(-c3ccc(F)cc3)cn(-c3ccc(OC(F)(F)F)cc3)c(=O)c21 [Compound 683]	< 50	< 50
Cn1cc(-c2cn(-c3ccc(OC(F)(F)F)cc3)c(=O)c3c2nnn3CCF)cn1 [Compound 684]	50 to 200	< 50
CCOc1ccc(-n2cc(-c3ccnnc3)c3nn(CC)nc3c2=O)c(C)c1 [Compound 685]	< 50	< 50
CCOc1ccc(-n2cc(-c3cnn(C)c3)c3nn(CC)nc3c2=O)c(C)c1 [Compound 686]	50 to 200	< 50
Cn1cc(-c2cn(-c3ccc(OC(F)(F)F)cc3)c(=O)c3nnn(CCF)c23)cn1 [Compound 687]	< 50	< 50
CCn1nc2c(-c3cnn(C)c3)cn(-c3ccc(OCCOC)cc3)c(=O)c2n1 [Compound 688]	50 to 200	50 to 200
O=c1c2[nH]ncc2c(-c2ccc(F)cc2)cn1-c1ccc(OC(F)(F)F)cc1 [Compound 689]	< 50	< 50
Cc1nc2c(-c3cnn(C)c3)cn(-c3ccc(OC(F)(F)F)cc3)c(=O)c2s1 [compound 584]	< 50	< 50

— patent US10233195B2, “Anti-fibrotic pyridinones” (InterMune, Inc., priority 2014, dated 2019)
